In US20220087970A1, “PREVENTION OF ANESTHETIC-INDUCED NEUROCOGNITIVE DYSFUNCTION” (The Johns Hopkins University, priority 2019, published 2022):

Columns and labels:
[1] = test system: ERK; assay: Western blot, phosphorylation status of ERK in hippocampal tissues; assay type: in vivo; settings: PND7 mice; BAY 60-7550 3 mg/kg 30 min, molsidomine 4 mg/kg 30 min
Method: PND7 mice were exposed to isoflurane (1.5% ISO in 02, 4 hr), control gas (100% O2, 4 hr), PDE inhibitor (BAY 60-7550, 3 mg/kg, 30 min), or NO donor (molsidomine, 4 mg/kg, 30 min), we harvested hippocampal tissues for Western blotting to assess the phosphorylation status of ERK.

[2] = test system: primary neuron cultures; assay: Primary neuron cultures, long thin spines and filopodia at DIV7; assay type: cell-based; settings: for effect on PDZ2WT-induced loss of long thin spines and filopodia at DIV7: PDZ2WT peptide 1 μM 4 hrs; for effect on PDZ2WT-induced loss of long thin spines and filopodia at DIV7 / effect on isoflurane-induced loss of long thin spines and filopodia at DIV7: DETA NONOate 150 μM, ODQ 100 μM added to NO donor; for effect on isoflurane-induced loss of long thin spines and filopodia at DIV7: isoflurane 1.5% 4 hrs
Method: Primary neuron cultures were exposed to control gas (25% O2, 5% CO2, bal N2), isoflurane (1.5% ISO in 25% O2, 5% CO2, bal N2), DETA NONOate NO donor 150 μM and sGC inhibitor ODQ 100 μM for 4 hrs. […] MAP2 dendrite marker, green. Drebrin A/E immature spine/filopodia marker, red. Scale bar is 5 μm. FIG. 20B, Density of long thin spines and filopodia at DIV7 among exposed groups analyzed using Imaris 93.1;
MAP2, green. Drebrin, red. Scale bar is 5 μm. FIG. 21B, show the density of long thin spines and filopodia among exposed groups;
Neuron cultures were exposed to control gas (25% O2, 5% CO2, balance N2) or sevoflurane (2.1% ISO in 25% O2, 5% CO2, balanced N2) for 4 hrs. […] Scale bar is 5 μm. FIG. 22B, Density of long thin spines and filopodia among exposed groups; and […]

[3] = test system: neuron cultures; assay: Neuron cultures, synapses (PSD95/Synaptophysin puncta) at DIV14; assay type: cell-based; settings: DETA 150 μM and ODQ 100 μM for 4 hrs right before exposure to gases at DIV7
Method: Neuron cultures were transfected with GFP-AAV virus at DIV-4 and were exposed to NO donor (DETA) 150 μM and sGC inhibitor (ODQ) 100 μM for 4 hrs right before exposure to gases at DIV7. Cells were returned back to incubator with half media change every second day. At DIV14, cells were fixed and stained with PSD95 and Synaptophysin. […] Scale bar is 5 μm. FIG. 23B: Synapse were analyzed using puncta analyzer plugin as shown in methods section.

[4] = test system: PSD-95 or PSD-93 and the NMDA receptor or nNOS; settings: clinically relevant concentrations; Fang et al., 2003; Tao et al., 2015; cited from earlier work
[5] = test system: C57BL6 mice; assay: Novel object recognition at PND21; assay type: in vivo; settings: molsidomine 4 mg/kg ip after PND7 exposure, PND21
Method: 1.3.2 Anesthesia, Peptide, and Molsidomine Injections. PND7 control and experimental mice were placed in a clear plastic cone and body temperature maintained by a heating blanket set to 35° C. Vital signs and physiological monitoring were assessed using PhysioSuite® (Kent Scientific Corporation, Torrington, Conn., USA) and blood gasses were collected arterially. […] Note that lower concentrations of 02 can be used, e.g., between 20% to 100% 02, including 20%, 25%, 30%, 35%, 40%, 45%, 50%, 55%, 60%, 65%, 70%, 75%, 80%, 85%, 90%, 95%, 96%, 97%, 98%, 99%, and 100% 02. Naïve animals were left with the dams. Anesthesia was initiated with 2.4% ISO in 100% oxygen for 2 min and tapered down to 1.5% within 15 min. Exposure to 1.5% ISO was continued for 3 hours and 45 min (total 4 hours ISO). Control ‘CON’ animals were exposed to 100% oxygen only. At the end of the exposure animals were maintained in oxygen on the heating blanket for 10 min then returned to dams. […] Tao and Johns, 2008. A single injection of peptide was given ip. Separate peptide cohorts were injected in parallel with mice undergoing exposure to anesthesia or O2 control. Purification of fusion peptides was performed by Creative BioMart (Shirley, N.Y.) and verified by Coomassie blue staining and Western blot analysis and then stored in 10% glycerol/phosphate buffered saline at −80° C. until use. The Tat-PSD-95 PDZ2WT and MUT plasmids used to generate proteins containing an amino-terminal, in-frame, 11-amino-acid, minimal transduction domain (residues 47-57 of human immunodeficiency virus Tat protein) termed Tat. […] Fang et al., 2003. The NO donor molsidomine [(N-[ethoxycarbonyl]-3-[4-morpholinosydnomine] (Sigma, St. Louis, Mo.) was injected at 4 mg/kg into mice ip in 100 μL sterile saline as previously described. The NO donor was added immediately following cessation of anesthesia or control (O2) exposure, i.e., the NO donor was injected 4 hours after onset of anesthesia. One of ordinary skill in the art upon review of the present disclosure would appreciate that the NO donor could be administered at other times during anesthesia, including at the onset of anesthesia. Control animals were injected ip with the vehicle (saline).
1.3.7 Novel Object Recognition. The novel object recognition (NOR) procedure was based upon the original Ennaceur et al., 1988, procedure and was used to assess nonspatial hippocampal memory. Clark et al., 2000; Baker and Kim, 2002; Reger et al., 2009. It consisted of a training ‘familiarization’ phase followed by a testing phase. During training, mice were allowed to freely explore within an opaque box (40 cm W×40 cm L×34 cm H) containing two identical objects for 10 min. Data were recorded with a video camera and time spent with each object was recorded using ANYmaze software (Stoelting). Object investigation time was determined by the amount of time the mouse spent in the zone immediately surrounding the object. […] After 2 h, object recognition was tested, using the same procedure as in training except that a novel object was substituted for one of the familiar training objects and mice were allowed to explore for 5 min. Mice inherently prefer to explore novel objects; thus, a preference for the novel object indicates intact memory for the familiar object.

[6] = test system: hippocampal CA1 LTP (Schaffer collateral pathway); assay: Extracellular field-potential recordings, LTP in hippocampal slices at PND21; assay type: in vivo, mice; settings: molsidomine 4 mg/kg ip after PND7 exposure
Method: 1.3.2 Anesthesia, Peptide, and Molsidomine Injections. PND7 control and experimental mice were placed in a clear plastic cone and body temperature maintained by a heating blanket set to 35° C. Vital signs and physiological monitoring were assessed using PhysioSuite® (Kent Scientific Corporation, Torrington, Conn., USA) and blood gasses were collected arterially. […] Note that lower concentrations of 02 can be used, e.g., between 20% to 100% 02, including 20%, 25%, 30%, 35%, 40%, 45%, 50%, 55%, 60%, 65%, 70%, 75%, 80%, 85%, 90%, 95%, 96%, 97%, 98%, 99%, and 100% 02. Naïve animals were left with the dams. Anesthesia was initiated with 2.4% ISO in 100% oxygen for 2 min and tapered down to 1.5% within 15 min. Exposure to 1.5% ISO was continued for 3 hours and 45 min (total 4 hours ISO). Control ‘CON’ animals were exposed to 100% oxygen only. At the end of the exposure animals were maintained in oxygen on the heating blanket for 10 min then returned to dams. […] Tao and Johns, 2008. A single injection of peptide was given ip. […]
1.3.6.2. […] Synaptic responses were recorded using a MultiClamp 700B amplifier, and the signal was digitized with Digidita 1440A, analyzed with pClamp10 and stored on a personal computer. […] Measurements of the fEPSP slopes were made during the rising phase (5-50% of the peak) and the values normalized to the mean values recorded in 20-min baseline. […]

[7] = test system: hippocampal dendritic mushroom spines (dentate gyrus); assay type: in vivo, mice; settings: molsidomine 4 mg/kg ip after PND7 exposure, PND49
Method: PND7 control and experimental mice were placed in a clear plastic cone and body temperature maintained by a heating blanket set to 35° C. Heart rate (HR) and oxyhemoglobin saturation (SpO2) were continuously monitored using pulse-oximetry (PhysioSuite, Kent Scientific). Arterial blood was collected by terminal cardiac puncture of the left ventricle from sentinels and pH (pHa) determined using a blood gas machine (ABL800 FLEX Series Radiometer). […] Naïve control animals were left with the dams. Control ‘CON’ animals were exposed to oxygen only. Anesthesia was initiated with 2.4% isoflurane in oxygen for 2 min and tapered down to 1.5% within 15 min. Exposure to 1.5% isoflurane was continued for 3 hours and 45 min (total 4 hours ISO). At the end of the exposure animals were maintained in oxygen on the heating blanket for 10 min then returned to dams. […] Tao and Johns, 2008. Purification of fusion peptides was performed by Creative BioMart (Shirley, N.Y.) and verified by Coomassie blue staining and Western blot analysis and then stored in 10% glycerol/phosphate-buffered saline at −80° C. until use. The Tat-PSD-95 PDZ2WT and MUT plasmids used to generate proteins containing an amino-terminal, in-frame, 11-amino-acid, minimal transduction domain (residues 47-57 of human immunodeficiency virus Tat protein) termed Tat. […] Fang et al., 2003. […]

Compound	amount of pERK [1]	effect on PDZ2WT-induced loss of long thin spines and filopodia at DIV7 [2]	effect on isoflurane-induced loss of long thin spines and filopodia at DIV7 [2]	effect on isoflurane-induced loss of synapses at DIV14 [3]	PDZ domain-mediated protein interactions [4]	also measured
COc1ccc(Cc2nn3c([C@@H](CCCc4ccccc4)[C@@H](C)O)nc(C)c3c(=O)[nH]2)cc1OC [BAY 60-7550]	significant increases in the amount of pERK	–	–	–	–	–
NCCN(CCN)/[N+]([O-])=N/O [DETA NONOate]	–	prevented loss of immature spines	prevented loss of immature spines	prevented loss of synapses	–	–
O=c1onc2cnc3ccccc3n12 [ODQ]	–	blocked the prevention with NO donor	blocked the prevention with NO donor	blocked the prevention with DETA	–	–
FC(F)(F)C(Cl)Br (centres unmarked) [halothane, 2-bromo-2-chloro-1,1,1-trifluoroethane]	–	–	–	–	can disrupt PDZ domain-mediated protein-protein interactions in vitro and in vivo	–
CCOC(=O)Nc1c[n+](N2CCOCC2)no1 [molsidomine, N-ethoxycarbonyl-3-morpholinosydnonimine]	significant increases in the amount of pERK	–	–	–	–	effect of NO donor on impairment in recognition memory caused by ISO or PDZ2WT peptide [5]: prevents impairment in LTP and recognition memory; effect of NO donor on impairment in LTP caused by ISO or PDZ2WT peptide [6]: prevents impairment in LTP and recognition memory; effect of NO donor on decrease in mushroom spine density caused by isoflurane or PDZ2WT peptide [7]: prevents the decrease in mushroom spine density
FCOC(C(F)(F)F)C(F)(F)F [sevoflurane, 1,1,1,3,3,3-hexafluoro-2-(fluoromethoxy)propane]	–	–	–	–	can disrupt PDZ domain-mediated protein-protein interactions in vitro and in vivo	long thin spines and filopodia at DIV7 after exposure ([2]; 4 hrs: isoflurane 1.5%, PDZ2WT peptide 1 μM or sevoflurane 2.1%): loss of filopodia
